Test systems include BT-549 breast; HT29 colon; SK-OV-3 ovarian; SNB-19 CNS; OVCAR-3 ovarian; T-47D breast; 786-0 renal; OVCAR-5 ovarian; UACC-62 melanoma.
Holding throughout (test): NCI anticancer screen, dose series, 48 h

From PubChem BioAssay (NCI) come the findings set out here.

Structures are written as SMILES.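 Tested at 5 concentrations; 48 h exposure; 96-well plates; endpoints linearly interpolated, else capped at highest concentration. GI50 marks 50% less growth. TGI: total growth inhibition.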

For the molecule `CC12CCC3C(CCC4Cc5[nH]c6ccccc6c5CC43C)C1CCC2O` (stereo not drawn), the GI50 was 2.65 µM in the assay with BT-549 breast; 1.58 µM in the assay on HT29 colon; 2.81 µM in the assay with SK-OV-3 ovarian; 2.89 µM in the assay on SNB-19 CNS; 0.26 µM in the assay with OVCAR-3 ovarian; 2.3 µM in the assay on T-47D breast. The GI50 in the assay on 786-0 renal was 0.835 µM; in the assay on OVCAR-5 ovarian it was more than 100 µM; with UACC-62 melanoma it was 0.284 µM. In addition, the TGI in the assay on BT-549 breast is more than 100 µM; with HT29 colon, more than 27.1 µM; with SK-OV-3 ovarian, more than 100 µM; in the assay with SNB-19 CNS it was more than 100 µM; with OVCAR-3 ovarian, 0.719 µM; in the assay on T-47D breast it was more than 100 µM. Also, the TGI in the assay with OVCAR-5 ovarian was more than 100 µM; in the assay on UACC-62 melanoma it was 2.35 µM.
For the molecule `COc1c(C=O)c2c(c(OC)c1OC)-c1ccc(OC)c(=O)cc1[C@@H](NC(C)=O)CC2`, the TGI in the assay on BT-549 breast is more than 100 µM; in the assay on HT29 colon, more than 8.89 µM; in the assay on SK-OV-3 ovarian, 23.1 µM; in the assay with SNB-19 CNS it was more than 92.8 µM; with OVCAR-3 ovarian it was 1.09 µM; in the assay with T-47D breast, more than 100 µM. The TGI was more than 75.6 µM in the assay with 786-0 renal, more than 100 µM with OVCAR-5 ovarian and more than 92.3 µM in the assay with UACC-62 melanoma.
In the case of `O=C(Nc1ccc(Cl)c(Cl)c1)c1cccc(NC2=C(Cl)C(=O)N(Cc3ccccc3)C2=O)c1`, the GI50 was 17.3 µM with BT-549 breast; 59.6 µM in the assay on HT29 colon; more than 100 µM in the assay on SK-OV-3 ovarian; more than 100 µM with SNB-19 CNS; 24.6 µM in the assay on OVCAR-3 ovarian; 61.2 µM with T-47D breast. In addition, the GI50 with 786-0 renal is 48.4 µM; in the assay on OVCAR-5 ovarian, more than 100 µM; in the assay on UACC-62 melanoma, 37.1 µM. Moreover, the TGI in the assay with BT-549 breast is 87.1 µM; with HT29 colon, more than 100 µM; in the assay on SK-OV-3 ovarian, more than 100 µM; in the assay with SNB-19 CNS it was more than 100 µM; in the assay with OVCAR-3 ovarian it was more than 100 µM; in the assay on T-47D breast, more than 100 µM. Besides, the TGI in the assay on 786-0 renal, with OVCAR-5 ovarian and with UACC-62 melanoma was more than 100 µM throughout.
Consider `NCCNc1c2c(c(NCCN)c3c(CO)c[nH]c13)C(=O)c1ccccc1C2=O`, for which the GI50 is 6.72 µM in the assay with BT-549 breast; 10.6 µM with HT29 colon; 5.96 µM in the assay with SK-OV-3 ovarian; 3.34 µM in the assay with SNB-19 CNS; 1.14 µM in the assay on OVCAR-3 ovarian; 7.59 µM in the assay on T-47D breast. Further, the GI50 in the assay with 786-0 renal is 5.21 µM; with OVCAR-5 ovarian, 48.7 µM; with UACC-62 melanoma, 15.2 µM. Further, the TGI with BT-549 breast was 32 µM; in the assay with HT29 colon it was more than 100 µM; in the assay with SK-OV-3 ovarian, more than 100 µM; in the assay with SNB-19 CNS, more than 100 µM; in the assay on OVCAR-3 ovarian, 30.7 µM; in the assay on T-47D breast it was more than 100 µM. Further, the TGI with 786-0 renal, in the assay on OVCAR-5 ovarian and with UACC-62 melanoma was more than 100 µM throughout.
As to `Cc1c(N2CCCC2)cc2c(c1NC(=O)c1ccccc1Cl)C(C)(C)CC2(C)C`, the TGI in the assay on BT-549 breast is 32 µM; with HT29 colon, 29.4 µM; in the assay on SK-OV-3 ovarian, 27.2 µM; in the assay with SNB-19 CNS it was 29.5 µM; with OVCAR-3 ovarian, 21.3 µM; in the assay with T-47D breast it was 24.6 µM. Moreover, the TGI is 27.8 µM in the assay on 786-0 renal, 32.2 µM with OVCAR-5 ovarian and 23.2 µM in the assay with UACC-62 melanoma.
As for `CCOC(=O)c1ccc2[nH]c(-c3ccc(S(=O)(=O)F)cc3)cc(=O)c2c1`, the TGI in the assay with BT-549 breast was more than 100 µM; with HT29 colon it was more than 100 µM; in the assay with SK-OV-3 ovarian, more than 100 µM; in the assay with SNB-19 CNS, more than 100 µM; in the assay with OVCAR-3 ovarian, 50.3 µM; in the assay on T-47D breast, more than 100 µM. Moreover, the TGI was more than 100 µM in the assay with 786-0 renal, more than 100 µM in the assay with OVCAR-5 ovarian and 76.2 µM with UACC-62 melanoma.
`FC(F)(F)c1nc(N2CCCC2)ncc1-c1nnnn1-c1ccc(Cl)cc1`: the GI50 in the assay with BT-549 breast is 31 µM; with HT29 colon, 20.4 µM; with SK-OV-3 ovarian, 31.8 µM; in the assay on SNB-19 CNS, 30.9 µM; in the assay on OVCAR-3 ovarian, 18.9 µM; in the assay with T-47D breast, 5.29 µM. For the same molecule, the figures for the GI50 in the assay with 786-0 renal, with OVCAR-5 ovarian and in the assay on UACC-62 melanoma were 33.2 µM, more than 100 µM and 7.49 µM, respectively. The TGI in the assay on BT-549 breast is more than 100 µM; in the assay with HT29 colon it was 65.9 µM; with SK-OV-3 ovarian it was more than 100 µM; in the assay on SNB-19 CNS it was more than 100 µM; with OVCAR-3 ovarian, 83.4 µM; in the assay on T-47D breast, more than 100 µM. In addition, the TGI in the assay with 786-0 renal, in the assay with OVCAR-5 ovarian and in the assay on UACC-62 melanoma was more than 100 µM in each case.
With `O=C[C@@H](CO)O[C@H](C=O)c1c[nH]c(=O)[nH]c1=O`, the TGI in the assay on BT-549 breast is 286 µM; with HT29 colon, 595 µM; with SK-OV-3 ovarian, 473 µM; with SNB-19 CNS, 813 µM; in the assay on OVCAR-3 ovarian, 309 µM; with T-47D breast it was 606 µM. The TGI was 1310 µM with 786-0 renal, 379 µM in the assay with OVCAR-5 ovarian and 219 µM with UACC-62 melanoma.
With `CCc1nc(N)nc(N)c1-c1ccc(NCCN)c([N+](=O)[O-])c1`, the TGI in the assay with BT-549 breast, with HT29 colon, in the assay with SK-OV-3 ovarian, with SNB-19 CNS, in the assay with OVCAR-3 ovarian and with T-47D breast was more than 100 µM in each case. In addition, the TGI in the assay on 786-0 renal, in the assay on OVCAR-5 ovarian and with UACC-62 melanoma was more than 100 µM in each case.
Turning to `COc1cccc(C2c3cc4c(cc3OC(C)(N3CCCC3)C2C)OCO4)c1OC` (stereo not drawn), the TGI in the assay on BT-549 breast worked out at 32.6 µM; in the assay on HT29 colon, 22.3 µM; in the assay with SK-OV-3 ovarian it was 69.6 µM; in the assay with SNB-19 CNS it was 95.5 µM; with OVCAR-3 ovarian, 25.4 µM; in the assay on T-47D breast, 46.6 µM. In addition, the TGI with 786-0 renal is more than 100 µM; in the assay with OVCAR-5 ovarian, 43 µM; in the assay on UACC-62 melanoma, 51.5 µM.
Consider `COc1ccc(C2CC(c3cc(OC)c(OC)c(OC)c3)=NO2)cc1OCCCCOc1cc2c(cc1OC)C(=O)N1CCC[C@H]1C=N2` (stereo partly drawn), for which the GI50 in the assay on BT-549 breast is 1.23 µM; in the assay on HT29 colon, 2.75 µM; with SK-OV-3 ovarian, 3.37 µM; in the assay with SNB-19 CNS, 1.96 µM; in the assay with OVCAR-3 ovarian, 1.94 µM; in the assay on T-47D breast it was 1.31 µM. The figures for the GI50 in the assay on 786-0 renal, with OVCAR-5 ovarian and with UACC-62 melanoma were 1.57 µM, 3.13 µM and 1.52 µM, respectively. For the same molecule, the TGI came to 3.54 µM with BT-549 breast; 8.38 µM in the assay on HT29 colon; 9.46 µM with SK-OV-3 ovarian; 4.97 µM in the assay on SNB-19 CNS; 3.96 µM in the assay with OVCAR-3 ovarian; 4.11 µM in the assay with T-47D breast. Besides, the TGI was determined as 2.99 µM in the assay with 786-0 renal, 8.34 µM in the assay with OVCAR-5 ovarian and 2.85 µM with UACC-62 melanoma.
